Assays:
RD cells = experiment: Cytotoxicity assay (CellTiter-Glo 2.0) on RD cells; type: cell-based, Human; conditions: for IC50: Homo sapiens; for Cytotoxicity: test concentration or dose not given here
Procedure, shortened: (§1)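 Viability was measured as ATP-based bioluminescence (CellTiter-Glo 2.0) after compound treatment, with medium and exposure time set per cell line. Relative IC50 values were then calculated.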

EoL-1 cells = experiment: Cytotoxicity assay (CellTiter-Glo 2.0) on EoL-1 cells; type: cell-based, Human; conditions: incubation 1 day; for IC50: Homo sapiens, EOL1, 24 h; for Cytotoxicity: test concentration or dose not given here
Procedure, shortened: as §1

4T1 cells = experiment: Cytotoxicity assay (CellTiter-Glo 2.0) on 4T1 cells; type: cell-based, Mouse; conditions: incubation 2 days; for IC50: Mus musculus, 48 h; for Cytotoxicity: test concentration or dose not given here
Procedure, shortened: as §1

HUVECs = experiment: Tube formation assay (anti-angiogenic activity); type: cell-based, human; conditions: incubation 16 to 18 hours; for IC50: Homo sapiens, HUVEC; for Angiogenesis inhibition: test concentration or dose not given here
Procedure, shortened: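 HUVECs plated at 5000 cells/well on reduced growth factor basement membrane matrix, then exposed to compounds for 16 to 18 hours at 37°C. Cells stained with calcein-AM; tube networks imaged by confocal fluorescence microscopy and quantified.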

MDA-MB-231 cells = experiment: Cytotoxicity assay (CellTiter-Glo 2.0) on MDA-MB-231 cells; type: cell-based, Human; conditions: incubation 3 days; for IC50: Homo sapiens, 72 h; for Cytotoxicity: test concentration or dose not given here
Procedure, shortened: as §1

SMILES	Cytotoxicity (RD cells; 2 day-treatment)	Cytotoxicity (RD cells; 4 day-treatment)	IC50 (RD cells; 48 h, 2 day-treatment) [µM]	IC50 (RD cells; 96 h, 4 day-treatment) [µM]	IC50 (EoL-1 cells) [µM]	Cytotoxicity (EoL-1 cells)	IC50 (4T1 cells) [µM]	Cytotoxicity (4T1 cells)	IC50 (HUVECs) [µM]	Angiogenesis inhibition (HUVECs)	IC50 (MDA-MB-231 cells) [µM]	Cytotoxicity (MDA-MB-231 cells)
CSc1cc(Oc2ccnc3c2OCC(=O)N3)ccc1NC(=O)Nc1cc(C(C)(C)C)nn1-c1cccc(CN(C)C)c1 [Compound 041, 1-[5-tert-butyl-2-[3-(dimethylaminomethyl)phenyl]pyrazol-3-yl]-3-[2-methylsulfanyl-4-[(3-oxo-4H-pyrido[3,2-b][1,4]oxazin-8-yl)oxy]phenyl]urea]	+++ (cytotoxicity ≥ 85%)	+++ (cytotoxicity ≥ 85%)	1 to 5	1 to 5	0.001 to 0.01	+++ (cytotoxicity ≥ 85%)	< 1	+++ (cytotoxicity ≥ 85%)	< 0.1	+++ (angiogenesis inhibition ≥ 80%)	1 to 5	+++ (cytotoxicity ≥ 85%)
CSc1cc(Oc2ccnc3c2CCC(=O)N3)ccc1NC(=O)Nc1cc(C(C)(C)C)nn1-c1ccc(CN2CCOCC2)cc1 [Compound 042, 1-[5-tert-butyl-2-[4-(morpholinomethyl)phenyl]pyrazol-3-yl]-3-[2-methylsulfanyl-4-[(7-oxo-6,8-dihydro-5H-1,8-naphthyridin-4-yl)oxy]phenyl]urea]	++ (50% ≤ cytotoxicity < 85%)	++ (50% ≤ cytotoxicity < 85%)	1 to 5	1 to 5	0.001 to 0.01	+++ (cytotoxicity ≥ 85%)	< 1	+++ (cytotoxicity ≥ 85%)	< 0.1	+++ (angiogenesis inhibition ≥ 80%)	1 to 5	++ (50% ≤ cytotoxicity < 85%)
CC(C)(C)c1cc(NC(=O)Nc2ccc(Oc3ccnc4c3OCC(=O)N4)cc2C(F)(F)F)n(-c2ccc(CN3CCOCC3)cc2)n1 [Compound 043, 1-[5-tert-butyl-2-[4-(morpholinomethyl)phenyl]pyrazol-3-yl]-3-[4-[(3-oxo-4H-pyrido[3,2-b][1,4]oxazin-8-yl)oxy]-2-(trifluoromethyl)phenyl]urea]	+ (20 % ≤ cytotoxicity < 50%)	+ (20 % ≤ cytotoxicity < 50%)	≥ 10	≥ 10	0.01 to 0.1	++ (50% ≤ cytotoxicity < 85%)	1 to 5	+++ (cytotoxicity ≥ 85%)	0.1 to 0.5	+++ (angiogenesis inhibition ≥ 80%)	5 to 10	++ (50% ≤ cytotoxicity < 85%)
CC(C)(C)c1cc(NC(=O)Nc2ccc(Oc3ccnc4c3OCC(=O)N4)cc2C(F)(F)F)n(-c2cccc(CN3CCOCC3)c2)n1 [Compound 044, 1-[5-tert-butyl-2-[3-(morpholinomethyl)phenyl]pyrazol-3-yl]-3-[4-[(3-oxo-4H-pyrido[3,2-b][1,4]oxazin-8-yl)oxy]-2-(trifluoromethyl)phenyl]urea]	+ (20 % ≤ cytotoxicity < 50%)	+ (20 % ≤ cytotoxicity < 50%)	≥ 10	≥ 10	0.01 to 0.1	++ (50% ≤ cytotoxicity < 85%)	1 to 5	+++ (cytotoxicity ≥ 85%)	0.1 to 0.5	+++ (angiogenesis inhibition ≥ 80%)	5 to 10	+ (20 % ≤ cytotoxicity < 50%)
CC(C)(C)c1cc(NC(=O)Nc2ccc(Oc3ccnc4c3CCC(=O)N4)cc2C(F)(F)F)n(-c2cccc(CN3CCOCC3)c2)n1 [Compound 045, 1-[5-tert-butyl-2-[3-(morpholinomethyl)phenyl]pyrazol-3-yl]-3-[4-[(7-oxo-6,8-dihydro-5H-1,8-naphthyridin-4-yl)oxy]-2-(trifluoromethyl)phenyl]urea]	+ (20 % ≤ cytotoxicity < 50%)	+ (20 % ≤ cytotoxicity < 50%)	5 to 10	5 to 10	0.01 to 0.1	++ (50% ≤ cytotoxicity < 85%)	< 1	+++ (cytotoxicity ≥ 85%)	0.1 to 0.5	+++ (angiogenesis inhibition ≥ 80%)	1 to 5	++ (50% ≤ cytotoxicity < 85%)
CSc1cc(Oc2ccnc3c2CCC(=O)N3)ccc1NC(=O)Nc1cc(C(C)(C)C)nn1-c1ccc(CN(C)C)cc1 [Compound 046, 1-[5-tert-butyl-2-[4-(dimethylaminomethyl)phenyl]pyrazol-3-yl]-3-[2-methylsulfanyl-4-[(7-oxo-6,8-dihydro-5H-1,8-naphthyridin-4-yl)oxy]phenyl]urea]	+++ (cytotoxicity ≥ 85%)	+++ (cytotoxicity ≥ 85%)	5 to 10	1 to 5	< 0.001	+++ (cytotoxicity ≥ 85%)	< 1	+++ (cytotoxicity ≥ 85%)	< 0.1	+++ (angiogenesis inhibition ≥ 80%)	1 to 5	+++ (cytotoxicity ≥ 85%)
CSc1cc(Oc2ccnc3c2CCC(=O)N3)ccc1NC(=O)Nc1cc(C(C)(C)C)nn1-c1cccc(CN2CCOCC2)c1 [Compound 047, 1-[5-tert-butyl-2-[3-(morpholinomethyl)phenyl]pyrazol-3-yl]-3-[2-methylsulfanyl-4-[(7-oxo-6,8-dihydro-5H-1,8-naphthyridin-4-yl)oxy]phenyl]urea]	++ (50% ≤ cytotoxicity < 85%)	++ (50% ≤ cytotoxicity < 85%)	5 to 10	1 to 5	0.001 to 0.01	+++ (cytotoxicity ≥ 85%)	< 1	+++ (cytotoxicity ≥ 85%)	< 0.1	+++ (angiogenesis inhibition ≥ 80%)	1 to 5	++ (50% ≤ cytotoxicity < 85%)
CN(C)Cc1cccc(-n2nc(C(C)(C)C)cc2NC(=O)Nc2ccc(Oc3ccnc4c3OCC(=O)N4)cc2C(F)(F)F)c1 [Compound 048, 1-[5-tert-butyl-2-[3-(dimethylaminomethyl)phenyl]pyrazol-3-yl]-3-[4-[(3-oxo-4H-pyrido[3,2-b][1,4]oxazin-8-yl)oxy]-2-(trifluoromethyl)phenyl]urea]	++ (50% ≤ cytotoxicity < 85%)	+++ (cytotoxicity ≥ 85%)	5 to 10	1 to 5	0.001 to 0.01	++ (50% ≤ cytotoxicity < 85%)	1 to 5	+++ (cytotoxicity ≥ 85%)	0.1 to 0.5	+++ (angiogenesis inhibition ≥ 80%)	1 to 5	++ (50% ≤ cytotoxicity < 85%)
CN(C)Cc1ccc(-n2nc(C(C)(C)C)cc2NC(=O)Nc2ccc(Oc3ccnc4c3OCC(=O)N4)cc2C(F)(F)F)cc1 [Compound 049, 1-[5-tert-butyl-2-[4-(dimethylaminomethyl)phenyl]pyrazol-3-yl]-3-[4-[(3-oxo-4H-pyrido[3,2-b][1,4]oxazin-8-yl)oxy]-2-(trifluoromethyl)phenyl]urea]	+++ (cytotoxicity ≥ 85%)	+++ (cytotoxicity ≥ 85%)	5 to 10	5 to 10	0.01 to 0.1	++ (50% ≤ cytotoxicity < 85%)	1 to 5	+++ (cytotoxicity ≥ 85%)	0.1 to 0.5	+++ (angiogenesis inhibition ≥ 80%)	5 to 10	+++ (cytotoxicity ≥ 85%)
CSc1cc(Oc2ccnc3c2CCC(=O)N3)ccc1NC(=O)Nc1cc(C(C)(C)C)nn1-c1cccc(CN(C)C)c1 [Compound 050, 1-[5-tert-butyl-2-[3-(dimethylaminomethyl)phenyl]pyrazol-3-yl]-3-[2-methylsulfanyl-4-[(7-oxo-6,8-dihydro-5H-1,8-naphthyridin-4-yl)oxy]phenyl]urea]	+++ (cytotoxicity ≥ 85%)	+++ (cytotoxicity ≥ 85%)	1 to 5	1 to 5	0.001 to 0.01	+++ (cytotoxicity ≥ 85%)	< 1	+++ (cytotoxicity ≥ 85%)	< 0.1	+++ (angiogenesis inhibition ≥ 80%)	1 to 5	+++ (cytotoxicity ≥ 85%)
CSc1cc(Oc2ccnc3c2OCC(=O)N3)ccc1NC(=O)Nc1cc(C(C)(C)C)nn1-c1ccc(CCN(C)C)cc1 [Compound 051, 1-[5-tert-butyl-2-[4-[2-(dimethylamino)ethyl]phenyl]pyrazol-3-yl]-3-[2-methylsulfanyl-4-[(3-oxo-4H-pyrido[3,2-b][1,4]oxazin-8-yl)oxy]phenyl]urea]	+++ (cytotoxicity ≥ 85%)	+++ (cytotoxicity ≥ 85%)	1 to 5	1 to 5	0.001 to 0.01	+++ (cytotoxicity ≥ 85%)	1 to 5	+++ (cytotoxicity ≥ 85%)	< 0.1	+++ (angiogenesis inhibition ≥ 80%)	1 to 5	+++ (cytotoxicity ≥ 85%)

Source: patent EP4289427A1, “DIHYDRO[1,8]NAPHTHYRIDIN-7-ONE AND PYRIDO[3,2-B][1,4]OXAZIN-3-ONE FOR USE IN TREATING CANCER, AND METASTASES IN PARTICULAR” (Anagenesis Biotechnologies, priority 2022, dated 2023)
